The values below come from PubChem BioAssay (NCI).

The structures appear in SMILES notation. Where “and” joins values, the source holds several entries; their conditions need not be identical. Equal entries are not always repeated.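 A five-concentration, 48-hour dose response in 96-well plates underlies each endpoint, interpolated linearly between surrounding concentrations. GI50 = concentration required for 50% inhibition of growth. TGI denotes the concentration required for complete inhibition of growth.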

Holding throughout (assay): NCI anticancer screen, dose series, 48 h
The subject of assay [1] is BT-549 breast.
Assay [2] relates to HCC-2998 colon.
The test system of assay [3] is HCT-116 colon.
Assay [4] has as its system HOP-92 NSCLC.
The test system of assay [5] is LOX IMVI melanoma.
The subject of assay [6] is MCF7 breast.
Assay [7] deals with OVCAR-8 ovarian.
In assay [8] the test system is SF-268 CNS.
Assay [9] deals with SF-539 CNS.
In assay [10] the test system is SW-620 colon.

Consider `C=C1C[C@H](O)[C@H](Br)C(C)(C)[C@@]12CCC(C)=C(Cl)C2`, for which the GI50 is 0.248 µM in [1]; 0.568 µM in assay [2]; 0.32 µM in assay [3]; 0.208 µM in assay [4]; 0.483 µM in assay [5]; 0.275 µM in assay [6]. Moreover, the GI50 in assay [7] is 0.416 µM; in assay [8] it was 0.396 µM; in assay [9], 0.445 µM; in assay [10], 0.625 µM. In addition, the TGI stood at 2.82 µM in assay [1]; 14 µM in assay [2]; 0.802 µM in assay [4]; 2.07 µM in assay [5]; 1.97 µM in assay [6]; 15.3 µM in [7]. The TGI turned out to be 6.25 µM in [8], 11.3 µM in assay [9] and 11.3 µM in [10].
Take `COc1ccc(Cn2c(Br)c3c(c2Br)-c2nc(N)sc2CC3)cc1`: the GI50 in assay [1] was 9.16 µM; in assay [2], 13.3 µM; in assay [3], 2.89 µM; in [4], 2.24 µM; in assay [5], 3.35 µM; in assay [6], 3.58 µM. For the same compound, the GI50 in [7] is 3.43 µM; in assay [8], 6.15 µM; in assay [9] it was 3.48 µM; in assay [10], 3.1 µM. For the same compound, the TGI in [1] amounted to 30.4 µM; in assay [2], 28.2 µM; in assay [3] it was 11.2 µM; in assay [4], 14 µM; in assay [5], 16.3 µM; in assay [6] it was 17.6 µM. Also, the TGI in [7] stood at 18.4 µM; in assay [8], 46.6 µM; in assay [9], 13.5 µM; in [10] it was 11.4 µM.
For the compound `C=CC(=O)Nc1cc(Nc2nccc(-c3cn(C)c4ccccc34)n2)c(OC)cc1N(C)CCN(C)C`, the GI50 in assay [1] is 3.52 µM and 2.95 µM; in [2], 1.56 µM and 1.48 µM; in assay [3] it was 1.72 µM and 1.51 µM; in [4], 0.793 µM and 0.416 µM; in assay [5] it was 1.75 µM and 1.41 µM; in assay [6], 1.5 µM and 1.48 µM. Moreover, the GI50 in assay [7] was 2.04 µM and 1.57 µM; in [8] it was 1.95 µM and 1.87 µM; in assay [9], 1.7 µM and 1.63 µM; in [10], 1.83 µM. Further, the TGI in [1] was 12.8 µM and > 10 µM; in assay [2] it was 3.37 µM and 2.98 µM; in assay [3] it was 3.3 µM and 2.96 µM; in assay [4] it was 8.39 µM and 3.49 µM; in assay [5] it was 3.55 µM and 2.86 µM; in [6], 3.47 µM and 3.6 µM. Moreover, the TGI in assay [7] was 5.89 µM and 4.18 µM; in assay [8], 7.02 µM and > 10 µM; in assay [9] it was 3.29 µM and 3.16 µM; in assay [10], 3.76 µM and 4.43 µM.
With `NC(=S)N/N=C\c1nccc2c(C(F)(F)F)cccc12`, the GI50 in assay [1] was 0.395 µM; in assay [2], 0.411 µM; in assay [3], 0.298 µM; in assay [4], 0.226 µM; in [5] it was 0.277 µM; in [6] it was 0.317 µM. The GI50 in assay [7] is 0.308 µM; in assay [8], 0.27 µM; in assay [9], 0.243 µM; in assay [10] it was 0.463 µM. For the same compound, the TGI in [1] turned out to be 7.71 µM; in assay [2] it was 15.4 µM; in assay [3], 4.26 µM; in assay [4], 1.35 µM; in [5], 10.8 µM; in assay [6] it was 13.3 µM. Also, the TGI in assay [7] was found to be 24 µM; in [8], 21.6 µM; in assay [9], 0.857 µM; in assay [10], 17.4 µM.
In the case of `CC[C@@H](c1ccc(O)c(O)c1)[C@@H](CC)c1ccc(O)c(O)c1`, the GI50 in [1] was 13.2 µM; in assay [2], 17.4 µM; in [3], 4.23 µM; in assay [4] it was 2.02 µM; in assay [5], 2.85 µM; in [6] it was 34.9 µM. The GI50 in assay [7] is 25.6 µM; in assay [8], 17.9 µM; in assay [9], 6.66 µM; in assay [10] it was 2.4 µM. For the same compound, the TGI in assay [1] is 26.1 µM; in assay [2] it was 33.1 µM; in assay [3], 14.4 µM; in assay [4] it was 6.09 µM; in [5], 9.91 µM; in assay [6], more than 100 µM. The TGI in [7] is more than 100 µM; in assay [8], 37.5 µM; in assay [9], 23.6 µM; in [10], 5.67 µM.
On to `O=C1c2c(F)c(F)c(F)c(F)c2C(=O)N1c1ccc(F)cc1F`, for which the GI50 in assay [1] was 11.9 µM; in assay [2], 11.2 µM; in [3], 3.71 µM; in assay [4] it was 13.8 µM; in assay [5], 1.5 µM; in assay [6] it was 12.9 µM. Further, the GI50 in assay [7] was 12.8 µM; in assay [8] it was 10.1 µM; in assay [9], 2.78 µM; in [10], 2.11 µM. Also, the TGI is 28 µM in assay [1]; 23.2 µM in [2]; 14.2 µM in assay [3]; 31.9 µM in assay [4]; 5.11 µM in assay [5]; more than 55.9 µM in assay [6]. Moreover, the TGI in assay [7] worked out at 50.8 µM; in [8], 27.8 µM; in assay [9], 7.27 µM; in assay [10] it was 7.22 µM.
Take `C=C(C)C12OC1[C@@]1(C)C(=CC2=O)CCC(O)[C@@H]1C` (some centres undefined): the TGI in [1] is 50.8 µM; in assay [2], 17.6 µM; in [3], 14.2 µM; in assay [4], 93.9 µM; in assay [5] it was 16.6 µM; in [6], more than 100 µM. The TGI in assay [7] was 8.24 µM; in assay [8], 14.7 µM; in [9], 15.8 µM; in assay [10] it was more than 100 µM.
On to `COc1ccc(CN2C(=O)C(Cl)=C(Nc3cccc(C(F)(F)F)c3)C2=O)cc1`, for which the GI50 was 1.58 µM in [1]; 8.46 µM in [2]; 3.45 µM in [3]; 0.885 µM in [4]; 3.08 µM in assay [5]; 2.7 µM in assay [6]. For the same compound, the GI50 in assay [7] is 7.65 µM; in assay [8], 3.67 µM; in assay [9], 1.77 µM; in assay [10], 3.61 µM. The TGI in assay [1] came out at 14.8 µM; in assay [2], 25.9 µM; in assay [3] it was 15.4 µM; in assay [4], 27 µM; in assay [5], 14.1 µM; in [6] it was 17.2 µM. In addition, the TGI turned out to be 30.8 µM in [7], 16.6 µM in [8], 12 µM in [9] and 15.7 µM in assay [10].
